Target: plasmepsin II (Plasmodium falciparum, UniProt P46925)
Experiment: Biological Assay for Plasmepsin II (EDANS fluorescence)
Format: biochemical
Settings: 4 nM plasmepsin II, 6 μM plasmepsin substrate, pH 5.0, 10 minutes at 25° C.
Method: Biological Assay for Plasmepsin II
The assay mix contained 50 mM sodium acetate (pH 5.0), 1 mg/ml BSA, 0.01% Tween 20, 12.5% glycerol, 18% DMSO and 12 μM plasmepsin substrate. Twenty five μL of the assay mix is added to each well of the 96-well microtiter plate containing dried down bead eluate or empty control wells. The plates are then sonicated and mixed. Then 25 μL of 8 nM plasmepsin II which is in 50 mM sodium acetate (pH 5.0), 1 mg/ml BSA, 0.01% Tween 20, and 12.5% glycerol, is added to the assay mix. The final concentrations are 4 nM plasmepsin II, 6 μM plasmepsin substrate, 9% DMSO, 50 mM sodium acetate (pH 5.0), 1 mg/ml BSA, 0.01% Tween 20, and 12.5% glycerol. The reaction is incubated for 10 minutes at 25° C. and then quenched by the addition of 25 μL of 1 M Tris (pH 8.5) and 50% DMSO to achieve a final concentration of 0.33 M Tris and 23% DMSO. The EDANS fluorescence was measured using the Tecan, SLT FLUOSTAR® fluorescence plate reader with an excitation filter of 350 nm and an emission filter 510 nm. The background was determined by 25 μL of 50 mM sodium acetate (pH 5.0), 1 mg/ml BSA, 0.01% Tween 20, and 12.5% glycerol without enzyme. Compound 23 was active at <1 millimolar concentration.

Chain of plasmepsin II (P46925 125-453): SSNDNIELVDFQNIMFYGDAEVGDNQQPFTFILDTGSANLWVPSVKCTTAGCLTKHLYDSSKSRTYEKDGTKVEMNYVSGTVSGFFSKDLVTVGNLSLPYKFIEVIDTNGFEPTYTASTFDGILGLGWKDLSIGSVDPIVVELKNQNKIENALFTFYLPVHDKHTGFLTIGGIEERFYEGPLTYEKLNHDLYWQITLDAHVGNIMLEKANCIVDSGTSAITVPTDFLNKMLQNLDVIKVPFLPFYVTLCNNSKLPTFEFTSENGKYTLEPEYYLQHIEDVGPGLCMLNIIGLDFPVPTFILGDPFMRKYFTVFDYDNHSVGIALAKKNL

C=CCOC(=O)N1C(CC(=O)NCCc2cc(OC)cc(OC)c2)CCC12CCCC2CNC(=O)C[C@H](O)[C@H](CC(C)C)NC(=O)OC(C)(C)C (relative stereo) [Compound 23]
concentration at which compound was active: < 1 millimolar
IC50 (read-out: IC50 (plasmepsin inhibitor)): < 1000 µM

Source: patent US6175020A, “Spirodiamino acid scaffold for combinatorial synthesis” (Pharmacopeia, Inc., priority 1999, dated 2001)
